Laboratory results as given in ChEMBL document CHEMBL1159026, “Brominated beta-carbolines from the marine tunicate Eudistoma album” (1992).
Values after ≈ are worked out from the molar mass of the structure shown.

Key:
Type in all cases: functional
[1] = system: KB; test: Cytotoxicity against human KB cells at 1 ug/ml
[2] = system: KB; test: Cytotoxicity against human KB cells at 5 ug/ml
[3] = system: KB; test: Cytotoxicity against human KB cells; details: read-out: ED50 (the source's name)
[4] = system: KB; test: Cytotoxicity against human KB cells at 10 ug/ml
[5] = system: KB; test: Cytotoxicity against human KB cells at 0.005 to 10 ug/ml

SMILES: CC(C)CC(N)c1nccc2c1[nH]c1cc(Br)ccc12 (centres undefined) [EUDISTALBIN A]
- Activity [1]: 0%
- Activity [2]: 92%
- EC50 [3]: 3.2 µg/mL (≈ 9.63 µM)
- Activity [4]: 100%
- EC50 ([5]; Homo sapiens, KB, read-out: ED50 (the source's name)): 3.2 µg/mL (≈ 9.63 µM)

SMILES: CC(C)CC(=O)c1nccc2c1[nH]c1cc(Br)ccc12 [EUDISTALBIN B]
- Activity [1]: 0%
- Activity [4]: 0%

SMILES: N[C@@H]1CSCON2CCc3c([nH]c4ccc(O)c(Br)c34)[C@H]12 [EUDISTOMIN E]
- EC50 [3]: < 0.005 µg/mL
- Activity [5]: 100%
